Source: US20200115688A1, “COMPOSITIONS AND METHODS FOR ENHANCING GENOME EDITING” (The Regents of the University of California, priority 2017, published 2020)

Tested on: Neural progenitor cells with a tdTomato reporter gene
Assay: Cas9 RNP genome editing in neural progenitor cells pretreated with Bafilomycin A1
Type: cell-based
Conditions: cells pretreated 1 hour before Cas9 RNPs added outside the cells; genomic DNA collected after 48 hours, target locus analyzed for Cas9-mediated targeted genomic deletions; FIG. 1
Experimental: Neural progenitor cells with a tdTomato reporter gene were pretreated with Bafilomycin A1 for 1 hour prior to addition of Cas9 RNPs outside of the cells. After 24 hours cells were washed 2× with Heparin to remove any remaining Cas9 RNP outside the cells. After 48 hours genomicDNA was collected and the target locus analyzed for Cas9-mediated targeted genomic deletions.

`CO/C1=C\C(C)=C\[C@@H](C)[C@@H](O)[C@@H](C)C/C(C)=C/C=C/[C@H](OC)[C@@H]([C@@H](C)[C@@H](O)[C@H](C)[C@@]2(O)C[C@@H](O)[C@H](C)[C@@H](C(C)C)O2)OC1=O` [bafilomycin A1] was tested, and the “editing efficiency of 0×NLS-Cas9-2×NLS” value was “no effect” and the “editing efficiency of cell penetrating Cas9 RNP, 4×NLS-Cas9-2×NLS” value was “specifically increased”.
